Source: publication PMC11641365, “Evaluation of In Vitro Biological Activity of Flavanone/Chromanone Derivatives: Molecular Analysis of Anticancer Mechanisms in Colorectal Cancer” (International Journal of Molecular Sciences, 2024)

Tests used:
Format in all cases: cell-based, human
[1] = tested on: LoVo; assay: Hydrogen peroxide level, H2DCFDA probe; conditions: compound at IC50, 24 h; for Increase in H2O2 levels: vs control
Description: Cellular H2O2 levels were assessed using 2′,7′-dichlorodihydrofluorescein diacetate (H2DCFDA, Sigma-Aldrich, St. Louis, MO, USA), a well-established fluorogenic probe for intracellular hydrogen peroxide detection. H2DCFDA readily diffuses across the cell membrane and is subsequently hydrolyzed by intracellular esterases to non-fluorescent H2DCF. Oxidation of H2DCF by ROS generates highly fluorescent 2′,7′-dichlorofluorescein (DCF), which accumulates in the cytosol. […] The fluorescence intensity of DCF is directly proportional to the concentration of ROS within the cell.
Cells were seeded in black 96-well fluorometric microplates at a density of 10 × 10^3 cells/mL. […] Following compound incubation, the medium was removed, and the cell monolayers were washed twice with HBSS (140 mM NaCl, 5 mM KCl, 0.8 mM MgCl2, 1.8 mM CaCl2, 1 mM Na2HPO4, 10 mM HEPES, and 1% glucose). A volume of 50 µL of H2DCFDA solution in HBSS (final concentration 5 μM) was added to each well, and the cells were incubated for 30 min in the dark at 37 °C. After incubation with the H2DCFDA, fluorescence measurements were conducted using a Perkin-Elmer LS-5B spectrofluorometer (MA, USA) at the following excitation and fluorescence emission wavelengths: λex = 498 nm/λem = 522 nm. The fluorescence intensity of control cells was arbitrarily assigned a value of 100%. The results were expressed as percentages of control, calculated by comparing the fluorescence intensity ratio of the test samples to controls (100%). The fluorescence of samples was denoted as Δf in relation to the control.

[2] = tested on: LoVo; assay: Autophagy induction, monodansylcadaverine (MDC) fluorescence; conditions: compound at IC50, 24 h, vs control
Description: (§1) Autophagy induction in cells treated with the tested drugs was determined by measuring Monodansylcadaverine (MDC; Sigma-Aldrich; St. Louis, MO, USA) fluorescence according to a modified method described by Vázquez. […] In the cell, MDC accumulates in lipid-rich cell membranes. It has been shown that MDC can be used as a dye for detecting autophagy, as it accumulates in autophagolysosomes as a result of interaction with membrane lipids.
(§2) Cells were seeded in black 96-well fluorometric microplates at a density of 10 × 10^3 cells/mL. […] Following compound incubation, the medium was removed, and the cell monolayers were washed twice with HBSS (140 mM NaCl, 5 mM KCl, 0.8 mM MgCl2, 1.8 mM CaCl2, 1 mM Na2HPO4, 10 mM HEPES, and 1% glucose). A solution of MDC at a final concentration of 50 μM was added to each well and incubated in a CO2 cell culture incubator at 37 °C for 15 min. After incubation with MDC, the probe was removed, and the cells were lysed with 50 μL of lysis buffer (10 mM TRIS-HCl; pH 8 containing 0.1% Triton X-100). After lysis, fluorescence was measured at an excitation wavelength of λex = 390 nm and an emission wavelength of λem = 460 nm using a Perkin-Elmer LS-5B spectrofluorometer (Waltham, MA, USA). In order to normalize the number of cells in individual samples, the amount of DNA was determined by adding 50 μL of EB (final concentration 0.2 mM) to each well after measuring the MCB fluorescence and measuring the EB fluorescence at an excitation wavelength of λex = 530 nm and an emission wavelength of λem = 590 nm. The results were calculated as the ratio of MDC fluorescence to EB fluorescence.

[3] = tested on: SW620; assay: as above; conditions: compound at IC50, 24 h, vs control
Description: as §1, §2

[4] = tested on: HCT 116, SW620, LoVo, Caco-2, and HT-29 cancer cell lines; assay: Alkaline comet assay (DNA damage), all cell lines; conditions: compound at IC50, 12 h; all five cell lines
Description: Single-cell gel electrophoresis, also known as the comet assay, is a rapid and sensitive method for assessing DNA damage at the single-cell level. Cells are lysed and electrophoresed. Both single-strand and double-strand breaks are detected under alkaline conditions. The released DNA is denatured and moves in the agarose gel toward the anode during electrophoresis. The image, obtained after staining with the fluorescent dye 4′,6-diamidino-2-phenylindole (DAPI), resembles a “comet” with a distinct “head” (intact DNA) and “tail” (damaged DNA fragments). The length of the tail depends on the number and size of the broken DNA strands.
Cells (1 × 10^3) were seeded in 35 mm dishes and cultured in the medium for 24 h to attain the logarithmic growth phase. […] Subsequently, cells were trypsinized and centrifuged for 10 min at 100× g at 4 °C. A small amount of PBS and a 0.5% solution of low-melting-point agarose (LMP agarose) were added to the obtained cell pellet and placed on a glass slide covered with two layers of normal-melting-point agarose (NMP agarose). The slides were incubated for 24 h in a lysis buffer (2.5 M NaCl, 100 mM, Na2EDTA, 10 mM, Tris, 1% Triton X-100) to release DNA. […] Quantitative analysis of the DNA comet image of preparations stained with DAPI solution (2 μg/L) was performed using a camera connected to a fluorescence microscope. The comet DNA analysis was performed under a Nikon Eclipse fluorescence microscope (Nikon, Tokyo, Japan) equipped with a 4910 COHU video camera (Cohu, Inc., San Diego, CA, USA) and a computer with Lucia-Comet v. […] Each time, from each preparation, 100 randomly selected comets were counted. The extent of DNA damage is quantified by measuring the length of the comet tail and the amount of DNA it contains. The Lucia Comet software calculated the percentage of DNA damage based on measurements of color intensity and comet tail length. The intensity of fluorescence was determined by the software, which calculated a series of parameters characterizing the extent of DNA damage for each cell. […]

For `COc1cccc(/C=C2/C(=O)c3ccccc3OC2c2ccccc2)c1` (stereo not drawn) [Compound 3], the “Increase in H2O2 levels” value [1] was 10%, the “Decrease in MDC fluorescence intensity” value [2] was 20% and the “Change in MDC fluorescence intensity” value [3] was “no significant changes”. For the same molecule, the “Genotoxic properties (comet assay)” value [4] was “potent genotoxic properties”.

`O=C1/C(=C/c2ccccc2)COc2ccccc21` [Compound 1] was tested, and the “Increase in H2O2 levels” value [1] was 10%, the “Increase in MDC fluorescence intensity (autophagy)” value [2] was “approximately 20%” and the “Increase in MDC fluorescence intensity (autophagy)” value [3] was “approximately 40%”. For the same molecule, the “Genotoxic properties (comet assay)” value [4] was “potent genotoxic properties”.

`O=C1/C(=C/c2ccccc2)C(c2ccccc2)Oc2ccccc21` (stereo not drawn) [Compound 5] was tested, and the “Effect on H2O2 levels” value [1] was “did not affect H2O2 levels”, the “Change in MDC fluorescence intensity” value [2] was “No significant changes” and the “Decrease in MDC fluorescence intensity” value [3] was 20%. For the same molecule, the “Genotoxic properties (comet assay)” value [4] was “potent genotoxic properties”.
